Measured values taken from patent US9434725B2, “5-azaindazole compounds and methods of use” (priority 2012, dated 2016).
Where a name gives a salt, the structure may show the parent alone.

Columns and labels:
Format in all cases: biochemical
PIM1 = PIM1 (Homo sapiens (Human), UniProt P11309); assay: biochemical; conditions: 10 μM ATP, 90 min, room temperature; read-out: PIM1 LC3K (KI)
Description: (§1) A fluorescent-labeled Pim-specific peptide substrate, was custom synthesized by American Peptide Company (Sunnyvale, Calif.). Reaction Buffer contained 10 mM HEPES, pH 7.2, 10 mM MgCl2, 0.01% Tween 20, 2 mM DTT. Termination Buffer contained 190 mM HEPES, pH 7.2, 0.015% Brij-35, 0.2% Coating Reagent 3 (Caliper Life Sciences, Hopkinton, Mass.), 20 mM EDTA. Separation Buffer contained 100 mM HEPES, pH 7.2, 0.015% Brij-35, 0.1% Coating Reagent 3, 1:200 Coating Reagent 8 (Caliper Life Sciences, Hopkinton, Mass.), 10 mM EDTA and 5% DMSO.
(§2) PIM reactions were carried out in a final volume of 10 μL per well in a 384-well plate. […] After 90 minutes of incubation at room temperature, the phosphorylation reaction was stopped by the addition of 10 μL Termination Buffer. The product and substrate in each independent reaction were separated on a 12-sipper microfluidic chip (Caliper Life Sciences, Hopkinton, Mass.) run on a Caliper LC3000® (Caliper Life Sciences, Hopkinton, Mass.). The separation of product and substrate was optimized by choosing voltages and pressure using Caliper's Optimizer software (Hopkinton, Mass.). […] Substrate conversion was calculated from the electropherogram using HTS Well Analyzer software (Caliper Life Sciences, Hopkinton, Mass.). Ki values for the test compound were calculated.

PIM2 = PIM2 (Homo sapiens (Human), UniProt Q9P1W9); assay: Pim kinase binding activity, Caliper LC3000 microfluidic peptide phosphorylation assay, PIM2; conditions: 10 μM ATP, 90 min, room temperature; read-out: PIM2 LC3K (KI)
Chain of PIM2 (Q9P1W9 whole entry): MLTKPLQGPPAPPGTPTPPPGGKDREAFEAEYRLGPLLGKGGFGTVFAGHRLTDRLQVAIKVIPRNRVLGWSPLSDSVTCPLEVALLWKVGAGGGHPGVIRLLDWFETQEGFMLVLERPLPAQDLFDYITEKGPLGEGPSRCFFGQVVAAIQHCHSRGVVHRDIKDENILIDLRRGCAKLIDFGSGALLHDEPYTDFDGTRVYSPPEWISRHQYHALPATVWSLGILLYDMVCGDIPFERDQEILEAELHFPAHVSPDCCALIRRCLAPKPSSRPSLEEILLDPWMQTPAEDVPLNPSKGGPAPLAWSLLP
Description: as §1, §2

PIM3 = PIM3 (Homo sapiens (Human), UniProt Q86V86); assay: Pim kinase binding activity, Caliper LC3000 microfluidic peptide phosphorylation assay, PIM3; conditions: 10 μM ATP, 90 min, room temperature; read-out: PIM3 LC3K (KI)
Description: as §1, §2

Chain of PIM1 (P11309 whole entry): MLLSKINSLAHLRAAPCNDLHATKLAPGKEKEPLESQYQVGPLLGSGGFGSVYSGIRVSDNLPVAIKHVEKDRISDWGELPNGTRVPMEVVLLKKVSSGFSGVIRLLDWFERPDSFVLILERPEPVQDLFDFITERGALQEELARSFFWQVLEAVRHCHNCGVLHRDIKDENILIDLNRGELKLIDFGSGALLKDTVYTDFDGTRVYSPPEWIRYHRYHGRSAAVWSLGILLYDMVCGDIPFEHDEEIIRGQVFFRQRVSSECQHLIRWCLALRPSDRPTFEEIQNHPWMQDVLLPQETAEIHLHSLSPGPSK

SMILES | Ki (PIM1) | Ki (PIM2) | Ki (PIM3)
NC(=O)Cn1cc(-c2cc3c(cn2)cnn3-c2cccc(N3CCCNCC3)n2)cn1 [Compound 159, 2-(4-(1-(6-(1,4-Diazepan-1-yl)pyridin-2-yl)-1H-pyrazolo[4,3-c]pyridin-6-yl)-1H-pyrazol-1-yl)acetamide] | 0.283 nM | 8.33 nM | 0.185 nM
CC[C@@H]1CN(c2cccc(-n3ncc4cnc(-c5cnn(CC)c5)cc43)n2)CCN1 [Compound 142, (R)-6-(1-ethyl-1H-pyrazol-4-yl)-1-(6-(3-ethylpiperazin-1-yl)pyridin-2-yl)-1H-pyrazolo[4,3-c]pyridine] | 0.802 nM | 15 nM | 0.458 nM
Cc1cncc(-c2cc3c(cn2)cnn3-c2cccc(C3=CCNCC3)n2)n1 [Compound 160, 6-(6-methylpyrazin-2-yl)-1-[6-(1 2 3 6-tetrahydropyridin-4-yl)-2-pyridyl]pyrazolo[4,3-c]pyridine] | 1.17 nM | 8.31 nM | 1.06 nM
Cc1cncc(-c2cc3c(cn2)cnn3-c2cnc(O)c(N3CCC[C@H](N)C3)n2)n1 [Compound 223, 3-[(3S)-3-amino-1-piperidyl]-5-[6-(6-methylpyrazin-2-yl)pyrazolo[4 3-c]pyridin-1-yl]pyrazin-2-ol] | 2.37 nM | 7.11 nM | 1.84 nM
CCn1cc(-c2cc3c(cn2)cnn3-c2cccc(N3CCC(O)CC3)n2)cn1 [Compound 129, 1-(6-(6-(1-ethyl-1H-pyrazol-4-yl)-1H-pyrazolo[4,3-c]pyridin-1-yl)pyridin-2-yl)piperidin-4-ol] | 3.47 nM | 28.3 nM | 2.46 nM
CCn1cc(-c2cc3c(cn2)cnn3-c2cccc(N3CCN[C@@H](C)C3)n2)cn1 [Compound 126, (S)-6-(1-ethyl-1H-pyrazol-4-yl)-1-(6-(3-methylpiperazin-1-yl)pyridin-2-yl)-1H-pyrazolo[4,3-c]pyridine] | 0.349 nM | 7.36 nM | 0.349 nM
COc1ncc(-n2ncc3cnc(-c4cncc(C)n4)cc32)nc1N1CCC[C@H](N)C1 [Compound 222, (3S)-1-[3-methoxy-6-[6-(6-methylpyrazin-2-yl)pyrazolo[4,3-c]pyridin-1-yl]pyrazin-2-yl]piperidin-3-amine] | 0.125 nM | 0.979 nM | 0.073 nM
Cc1cncc(-c2cc3c(cn2)cnn3-c2cccc(N3CCC4(CCNC4)CC3)n2)n1 [Compound 200, 8-[6-[6-(6-methylpyrazin-2-yl)pyrazolo[4,3-c]pyridin-1-yl]-2-pyridyl]-2 8-diazaspiro[4.5]decane] | 1.21 nM | 17 nM | 0.451 nM
Cc1cncc(-c2cc3c(cn2)cnn3-c2cccc(N3CCCN(C4COC4)CC3)n2)n1 [Compound 240, 6-(6-methylpyrazin-2-yl)-1-(6-(4-(oxetan-3-yl)-1,4-diazepan-1-yl)pyridin-2-yl)-1H-pyrazolo[4,3-c]pyridine] | 1.51 nM | 31.7 nM | 2.03 nM
Cn1cc(-c2cc3c(cn2)cnn3-c2cccc(N3CCNC[C@@H](O)C3)n2)cn1 [Compound 229, (R)-1-(6-(6-(1-Methyl-1H-pyrazol-4-yl)-1H-pyrazolo[4,3-c]pyridin-1-yl)pyridin-2-yl)-1,4-diazepan-6-ol] | 0.316 nM | 9.39 nM | 0.131 nM
OC[C@@H]1CCCN1c1cncc(-c2cc3c(cn2)cnn3-c2cccc(N3CCNCC3)n2)n1 [Compound 280, (S)-(1-(6-(1-(6-(piperazin-1-yl)pyridin-2-yl)-1H-pyrazolo[4,3-c]pyridin-6-yl)pyrazin-2-yl)pyrrolidin-2-yl)methanol dihydrochloride] | 0.051 nM | 18 nM | 0.101 nM

Now from value to compound:

Ki (PIM1) | Ki (PIM2) | Ki (PIM3) | SMILES
0.698 nM | 17.5 nM | 0.37 nM | O=c1cncc(-c2cc3c(cn2)cnn3-c2cccc(N3CCNCC3)n2)[nH]1 [Compound 287, 6-[1-(6-piperazin-1-yl-2-pyridyl)pyrazolo[4,3-c]pyridin-6-yl]-1H-pyrazin-2-one]
0.941 nM | 8.79 nM | 0.206 nM | Cc1cncc(-c2cc3c(cn2)cnn3-c2cccc(C3CNCCC3O)n2)n1 (stereo not drawn) [Compound 265, 3-[6-[6-(6-methylpyrazin-2-yl)pyrazolo[4,3-c]pyridin-1-yl]-2-pyridyl]piperidin-4-ol]
0.107 nM | 2.25 nM | 0.236 nM | COc1ccc(-n2ncc3cnc(-c4cnn(CC(F)(F)F)c4)cc32)nc1N1CCNC[C@@H](O)C1 [Compound 234, (R)-1-(3-Methoxy-6-(6-(1-(2,2,2-trifluoroethyl)-1H-pyrazol-4-yl)-1H-pyrazolo-[4,3-c]pyridin-1-yl)pyridin-2-yl)-1,4-diazepan-6-ol]
48.8 nM | 181 nM | 31.6 nM | COc1ccc(-n2ncc3cnc(-c4cncc(C)n4)cc32)nc1N1CCCNC1=O [Compound 251, 1-[3-methoxy-6-[6-(6-methylpyrazin-2-yl)pyrazolo[4,3-c]pyridin-1-yl]-2-pyridyl]hexahydropyrimidin-2-one]
128 nM | 1600 nM | 42.2 nM | Cn1cc(-c2cc3c(cn2)cnn3-c2cn(C)c(=O)c(N3CCC[C@H](N)C3)n2)cn1 [Compound 242, (S)-3-(3-Aminopiperidin-1-yl)-1-methyl-5-(6-(1-methyl-1H-pyrazol-4-yl)-1H-pyrazolo[4,3-c]pyridin-1-yl)pyrazin-2(1H)-one]
528 nM | 2300 nM | 903 nM | Cc1cncc(-c2cc3c(cn2)cnn3-c2cc(N3CCC[C@H](N)C3)c(=O)n(C)c2)n1 [Compound 233, (S)-3-(3-aminopiperidin-1-yl)-1-methyl-5-(6-(6-methylpyrazin-2-yl)-1H-pyrazolo[4,3-c]pyridin-1-yl)pyridin-2(1H)-one]
57.1 nM | 528 nM | 8.64 nM | Cn1cc(-c2cc3c(cn2)cnn3-c2cn(C)c(=O)c(N3CCC[C@@H](N)C3)n2)cn1 [Compound 243, (R)-3-(3-aminopiperidin-1-yl)-1-methyl-5-(6-(1-methyl-1H-pyrazol-4-yl)-1H-pyrazolo[4,3-c]pyridin-1-yl)pyrazin-2(1H)-one]
2.52 nM | 45.1 nM | 1.78 nM | Cn1cc(-c2cc3c(cn2)cnn3-c2cccc(N3CC(O)C3)n2)cn1 [Compound 253, 1-(6-(6-(1-Methyl-1H-pyrazol-4-yl)-1H-pyrazolo[4,3-c]pyridin-1-yl)pyridin-2-yl)azetidin-3-ol]
0.876 nM | 9.62 nM | 1.58 nM | OC1CN(c2cccc(-n3ncc4cnc(-c5cnn(CC(F)(F)F)c5)cc43)n2)C1 [Compound 255, 1-(6-(6-(1-(2,2,2-Trifluoroethyl)-1H-pyrazol-4-yl)-1H-pyrazolo[4,3-c]pyridin-1-yl)pyridin-2-yl)azetidin-3-ol]
0.715 nM | 8.6 nM | 0.37 nM | Cn1cc(-c2cc3c(cn2)cnn3-c2cccc(C3(F)CCCNCC3)n2)cn1 (stereo not drawn) [Compound 236, 1-(6-(4-Fluoroazepan-4-yl)pyridin-2-yl)-6-(1-methyl-1H-pyrazol-4-yl)-1H-pyrazolo[4,3-c]pyridine]
5.61 nM | 52.5 nM | 2.13 nM | Cc1cncc(-c2cc3c(cn2)cnn3-c2ccc(C)c(N3CCC[C@H](N)C3=O)n2)n1 [Compound 245, (3S)-3-amino-1-[3-methyl-6-[6-(6-methylpyrazin-2-yl)pyrazolo[4,3-c]pyridin-1-yl]-2-pyridyl]piperidin-2-one]
